The record followed here is ChEMBL document CHEMBL4373693, “Virtual Screening Approach and Investigation of Structure-Activity Relationships To Discover Novel Bacterial Topoisomerase Inhibitors Targeting Gram-Positive and Gram-Negative Pathogens” (J Med Chem, 2019).

One assay has as its system Escherichia coli. The assay can be described thus: Antibacterial activity against Escherichia coli. Type of assay: functional.
Assay [1] addresses DNA gyrase (Staphylococcus aureus, UniProt P0A0K8+P20831). Put plainly: Inhibition of Staphylococcus aureus DNA gyrase. In kind it is protein-complex assay.
The target in assay [2] is DNA gyrase (Escherichia coli, UniProt P0AES4+P0AES6). The assay can be described thus: Inhibition of Escherichia coli DNA gyrase. Type of assay: protein-complex assay.
In assay [3] the target is DNA gyrase subunit A (Escherichia coli K-12, UniProt P0AES4). Put plainly: Inhibition of Escherichia coli DNA gyrase A assessed as reduction in enzyme-mediated supercoiling of relaxed pBR322 DNA measured after 60 mins by electrophoresis method.
Sequence of DNA gyrase subunit A (Escherichia coli K-12, UniProt P0AES4) (P0AES4 whole entry): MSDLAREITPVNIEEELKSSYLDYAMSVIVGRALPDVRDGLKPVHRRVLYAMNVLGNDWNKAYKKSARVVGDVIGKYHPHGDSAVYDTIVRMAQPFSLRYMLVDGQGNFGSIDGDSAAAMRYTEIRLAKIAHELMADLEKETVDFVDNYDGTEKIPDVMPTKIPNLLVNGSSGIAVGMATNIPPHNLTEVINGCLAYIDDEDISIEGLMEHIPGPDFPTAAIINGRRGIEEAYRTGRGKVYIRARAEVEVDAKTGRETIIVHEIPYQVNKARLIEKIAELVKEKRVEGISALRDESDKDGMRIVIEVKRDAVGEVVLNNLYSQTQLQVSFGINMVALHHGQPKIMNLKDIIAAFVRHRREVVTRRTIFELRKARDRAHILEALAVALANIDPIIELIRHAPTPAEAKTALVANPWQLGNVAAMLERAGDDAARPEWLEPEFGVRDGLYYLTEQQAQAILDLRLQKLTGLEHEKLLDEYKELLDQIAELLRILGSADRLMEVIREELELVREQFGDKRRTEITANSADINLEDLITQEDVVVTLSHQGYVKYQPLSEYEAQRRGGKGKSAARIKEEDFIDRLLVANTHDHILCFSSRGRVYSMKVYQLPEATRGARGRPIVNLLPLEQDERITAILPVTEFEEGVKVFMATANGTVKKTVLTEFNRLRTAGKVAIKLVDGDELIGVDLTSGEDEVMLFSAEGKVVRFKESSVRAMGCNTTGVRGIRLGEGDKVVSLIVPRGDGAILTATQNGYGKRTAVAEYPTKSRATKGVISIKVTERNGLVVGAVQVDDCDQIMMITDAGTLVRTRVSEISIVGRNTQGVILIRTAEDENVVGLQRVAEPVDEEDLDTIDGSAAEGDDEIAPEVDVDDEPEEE
Assay [4] deals with DNA gyrase subunit A (Staphylococcus aureus, UniProt P20831). Put plainly: Inhibition of Staphylococcus aureus DNA gyrase A assessed as reduction in enzyme-mediated supercoiling of relaxed pBR322 DNA measured after 60 mins by electrophoresis method.
Sequence of DNA gyrase subunit A (Staphylococcus aureus, UniProt P20831) (P20831 whole entry): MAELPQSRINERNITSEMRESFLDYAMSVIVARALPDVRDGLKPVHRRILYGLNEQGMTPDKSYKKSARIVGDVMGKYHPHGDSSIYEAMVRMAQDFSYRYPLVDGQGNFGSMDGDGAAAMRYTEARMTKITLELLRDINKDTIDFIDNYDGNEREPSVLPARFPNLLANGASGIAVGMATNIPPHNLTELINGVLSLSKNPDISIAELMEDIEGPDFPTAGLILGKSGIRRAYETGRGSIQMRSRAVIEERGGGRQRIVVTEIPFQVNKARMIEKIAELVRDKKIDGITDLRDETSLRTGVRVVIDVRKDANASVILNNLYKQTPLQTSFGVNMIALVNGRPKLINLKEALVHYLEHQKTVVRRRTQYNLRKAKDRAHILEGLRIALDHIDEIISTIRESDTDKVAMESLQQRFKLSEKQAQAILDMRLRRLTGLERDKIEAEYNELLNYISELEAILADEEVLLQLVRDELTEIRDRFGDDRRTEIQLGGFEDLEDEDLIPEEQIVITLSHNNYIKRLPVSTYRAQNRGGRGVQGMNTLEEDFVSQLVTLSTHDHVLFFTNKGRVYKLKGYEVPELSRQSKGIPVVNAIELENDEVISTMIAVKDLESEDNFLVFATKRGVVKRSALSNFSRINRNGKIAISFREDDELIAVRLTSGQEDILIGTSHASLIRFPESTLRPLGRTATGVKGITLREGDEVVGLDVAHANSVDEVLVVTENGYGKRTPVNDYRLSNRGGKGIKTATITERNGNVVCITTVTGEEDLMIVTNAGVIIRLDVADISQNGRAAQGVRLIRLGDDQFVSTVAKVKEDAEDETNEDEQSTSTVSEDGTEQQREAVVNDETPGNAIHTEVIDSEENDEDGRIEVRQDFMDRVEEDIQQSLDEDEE
The target of assay [5] is DNA topoisomerase 4 subunit A (Staphylococcus aureus, UniProt P0C1U9). Put plainly: Inhibition of Staphylococcus aureus DNA topoisomerase 4 subunit ParC assessed as reduction in decatenation of kinetoplast DNA incubated for 60 mins by ethidium bromide staining based gel electrophoresis method.
Sequence of DNA topoisomerase 4 subunit A (Staphylococcus aureus, UniProt P0C1U9) (P0C1U9 whole entry): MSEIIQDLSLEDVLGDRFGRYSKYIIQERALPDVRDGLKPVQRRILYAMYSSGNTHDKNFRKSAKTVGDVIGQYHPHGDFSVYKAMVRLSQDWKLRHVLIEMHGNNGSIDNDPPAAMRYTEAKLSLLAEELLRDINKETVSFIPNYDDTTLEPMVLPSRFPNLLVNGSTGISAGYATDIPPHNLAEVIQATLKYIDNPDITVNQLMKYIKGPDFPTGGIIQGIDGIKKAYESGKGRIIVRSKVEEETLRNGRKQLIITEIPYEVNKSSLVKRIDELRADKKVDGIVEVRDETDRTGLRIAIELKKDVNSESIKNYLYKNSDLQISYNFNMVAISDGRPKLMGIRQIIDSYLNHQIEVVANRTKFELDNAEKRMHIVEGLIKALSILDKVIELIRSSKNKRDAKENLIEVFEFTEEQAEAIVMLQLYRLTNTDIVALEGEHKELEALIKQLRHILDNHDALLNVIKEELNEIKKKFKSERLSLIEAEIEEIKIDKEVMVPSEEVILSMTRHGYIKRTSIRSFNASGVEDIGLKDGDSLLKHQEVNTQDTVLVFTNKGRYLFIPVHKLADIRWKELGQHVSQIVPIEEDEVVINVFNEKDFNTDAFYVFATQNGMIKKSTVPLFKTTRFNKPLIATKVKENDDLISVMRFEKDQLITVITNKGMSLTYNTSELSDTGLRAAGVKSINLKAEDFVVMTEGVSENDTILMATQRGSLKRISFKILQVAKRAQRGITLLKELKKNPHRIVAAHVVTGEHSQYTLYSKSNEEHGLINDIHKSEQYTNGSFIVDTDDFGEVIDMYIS
Assay [6] deals with T1, DNA topoisomerase 4 subunit A (Escherichia coli K-12, UniProt P0AFI2).
T1 sequence (P0AFI2 whole entry): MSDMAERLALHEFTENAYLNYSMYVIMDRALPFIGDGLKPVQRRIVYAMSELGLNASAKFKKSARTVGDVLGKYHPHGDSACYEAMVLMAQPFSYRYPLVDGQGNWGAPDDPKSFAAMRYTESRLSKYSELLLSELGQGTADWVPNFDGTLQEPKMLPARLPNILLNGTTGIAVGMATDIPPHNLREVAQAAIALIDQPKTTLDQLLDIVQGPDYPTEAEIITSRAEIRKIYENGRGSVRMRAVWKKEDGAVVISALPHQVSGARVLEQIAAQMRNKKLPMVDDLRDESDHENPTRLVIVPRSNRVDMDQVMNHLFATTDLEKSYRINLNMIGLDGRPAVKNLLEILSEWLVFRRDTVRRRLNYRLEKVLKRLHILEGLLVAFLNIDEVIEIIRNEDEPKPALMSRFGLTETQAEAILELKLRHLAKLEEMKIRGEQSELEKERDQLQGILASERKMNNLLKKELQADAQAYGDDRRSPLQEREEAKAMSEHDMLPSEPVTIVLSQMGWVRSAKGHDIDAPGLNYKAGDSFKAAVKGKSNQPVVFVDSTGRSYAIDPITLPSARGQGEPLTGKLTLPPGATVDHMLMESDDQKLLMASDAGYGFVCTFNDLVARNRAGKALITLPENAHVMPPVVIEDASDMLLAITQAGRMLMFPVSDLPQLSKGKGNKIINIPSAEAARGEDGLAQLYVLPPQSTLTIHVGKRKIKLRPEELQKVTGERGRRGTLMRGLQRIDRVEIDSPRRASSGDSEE
Put plainly: Inhibition of Escherichia coli DNA topoisomerase 4 subunit ParC assessed as reduction in decatenation of kinetoplast DNA incubated for 60 mins by ethidium bromide staining based gel electrophoresis method.

The nature of assay [7]: Inhibition of Escherichia coli DNA topoisomerase 4.
The target of the next assay is Topoisomerase IV (Staphylococcus aureus, UniProt P0C1S7+P0C1U9). Put plainly: Inhibition of Staphylococcus aureus DNA topoisomerase 4. Type of assay: protein-complex assay.
The subject of another assay is Staphylococcus aureus. The assay can be described thus: Antibacterial activity against Staphylococcus aureus. Type of assay: functional.

Converted amounts (≈) assume the structure as drawn.

Sequence of DNA gyrase (Staphylococcus aureus, UniProt P0A0K8+P20831) (P0A0K8 whole entry): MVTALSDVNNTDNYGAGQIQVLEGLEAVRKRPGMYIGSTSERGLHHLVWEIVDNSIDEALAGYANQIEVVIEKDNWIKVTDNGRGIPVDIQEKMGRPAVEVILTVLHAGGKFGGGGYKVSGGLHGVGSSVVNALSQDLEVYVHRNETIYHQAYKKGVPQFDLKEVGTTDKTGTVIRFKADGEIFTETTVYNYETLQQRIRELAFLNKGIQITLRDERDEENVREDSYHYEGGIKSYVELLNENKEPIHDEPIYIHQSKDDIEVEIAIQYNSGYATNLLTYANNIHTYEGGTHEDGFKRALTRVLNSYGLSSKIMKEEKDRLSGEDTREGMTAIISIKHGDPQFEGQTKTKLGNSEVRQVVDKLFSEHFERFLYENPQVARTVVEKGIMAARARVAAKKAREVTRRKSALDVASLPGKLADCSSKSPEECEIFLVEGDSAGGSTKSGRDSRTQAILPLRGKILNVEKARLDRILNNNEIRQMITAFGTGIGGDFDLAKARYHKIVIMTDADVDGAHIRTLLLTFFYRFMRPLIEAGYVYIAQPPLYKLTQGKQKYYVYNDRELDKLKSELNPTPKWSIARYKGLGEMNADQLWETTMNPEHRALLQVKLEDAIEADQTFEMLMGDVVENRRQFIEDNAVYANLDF
Sequence of DNA gyrase (Staphylococcus aureus, UniProt P0A0K8+P20831) (P20831 whole entry): as the sequence (P20831 whole entry) above

As to `COc1ccc2ncc(C#N)c(CCN3CCC(NCc4cc5c(cn4)OCS5)CC3)c2c1`, in the assay on Escherichia coli, the MIC came to 0.06 µg/mL (≈ 0.13 µM). Further, the IC50 was 14 nM against DNA gyrase [1] and 100 nM against DNA gyrase [2].

As for `COc1ccc2ncc(F)c([C@@H](O)CC[C@@H]3CCN(CCSc4cccs4)C[C@@H]3C(=O)O)c2c1`, the IC50 on DNA gyrase subunit A [3] is 11000 nM; on DNA gyrase subunit A [4], 1000 nM; in [5] it was 18000 nM; in assay [6] it was 2200 nM.

Turning to `O=C1COc2ccc(N3C[C@H](CCCN[C@@H]4Cn5c(=O)ccc6ccc(F)c4c65)OC3=O)nc2N1`, the IC50 in assay [7] was found to be 30 nM; at DNA gyrase [1], 8 nM; at Topoisomerase IV, 2000 nM; at DNA gyrase [2], 125 nM. Moreover, the MIC90 against Escherichia coli came to 0.5 µg/mL (≈ 1.04 µM); against Staphylococcus aureus, 0.016 µg/mL (≈ 0.0334 µM).
